Source: patent US10266548B2, “Substituted benzylindazoles for use as Bub1 kinase inhibitors in the treatment of hyperproliferative diseases” (Bayer Intellectual Property GmbH, priority 2011, dated 2019)
pIC50: −log10 of the molar value. Read-outs that look alike come from different tables or passages of the source.

Tests used:
[1] = test system: HeLa cells; assay: Proliferation assay (HeLa cell line); type: cell-based; details: Homo sapiens, 96 h, read-out: Biological Assay 2: Proliferation assay (HeLa cell line) median IC50
Protocol: Cultivated tumor cells (cells were ordered from ATCC, except HeLa-MaTu and HeLa-MaTu-ADR, which were ordered from EPO-GmbH, Berlin) were plated at a density of 1000 to 5000 cells/well, depending on the growth rate of the respective cell line, in a 96-well multititer plate in 200 μL of their respective growth medium supplemented 10% fetal calf serum. After 24 hours, the cells of one plate (zero-point plate) were stained with crystal violet (see below), while the medium of the other plates was replaced by fresh culture medium (200 μl), to which the test substances were added in various concentrations (0 μM, as well as in the range of 0.001-10 μM; the final concentration of the solvent dimethyl sulfoxide was 0.5%). The cells were incubated for 4 days in the presence of test substances. Cell proliferation was determined by staining the cells with crystal violet: the cells were fixed by adding 20 μl/measuring point of an 11% glutaric aldehyde solution for 15 minutes at room temperature. After three washing cycles of the fixed cells with water, the plates were dried at room temperature. The cells were stained by adding 100 μl/measuring point of a 0.1% crystal violet solution (pH 3.0). After three washing cycles of the stained cells with water, the plates were dried at room temperature. The dye was dissolved by adding 100 μl/measuring point of a 10% acetic acid solution. […] The change of cell number, in percent, was calculated by normalization of the measured values to the aborbtion values of the zero-point plate (=0%) and the absorbtion of the untreated (0 μm) cells (=100%). The IC50 values were determined by means of a 4 parameter fit using the company's own software.

[2] = target: catalytic domain of human Bub1 (amino acids 704-1085) (Homo sapiens (Human), UniProt O43683); assay: Bub1 kinase assay (TR-FRET); type: biochemical; details: 10 μM ATP, 1 μM peptide substrate; read-out: Biological Assay 1: Bub1 kinase assay median IC50
catalytic domain of human Bub1 (amino acids 704-1085), sequence (O43683 704-1085): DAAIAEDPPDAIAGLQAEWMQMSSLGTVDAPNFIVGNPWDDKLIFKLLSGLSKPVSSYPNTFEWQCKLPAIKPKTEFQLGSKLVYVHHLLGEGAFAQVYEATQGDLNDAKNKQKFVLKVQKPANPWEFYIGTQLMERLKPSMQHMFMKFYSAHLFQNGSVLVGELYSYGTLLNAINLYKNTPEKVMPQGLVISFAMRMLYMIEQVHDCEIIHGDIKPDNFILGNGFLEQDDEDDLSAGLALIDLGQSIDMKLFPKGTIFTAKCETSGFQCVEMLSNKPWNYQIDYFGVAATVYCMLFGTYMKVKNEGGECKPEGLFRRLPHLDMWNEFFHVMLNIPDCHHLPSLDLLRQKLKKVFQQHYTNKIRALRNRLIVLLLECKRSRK
Protocol: To this end, 100-fold concentrated compound solutions (in DMSO) were previously prepared by serial dilution (1:3.4) of 2 mM stocks in a clear low volume 384-well source microtiter plate (Greiner Bio-One, Frickenhausen, Germany), from which 50 nl of compounds were transferred into a black low volume test microtiter plate from the same supplier. […] The resulting mixture (5 μl final volume) was incubated at 22° C. during 60 min., and the reaction was stopped by the addition of 5 μl of an aqueous EDTA-solution (50 mM EDTA, in 100 mM HEPES pH 7.5 and 0.2% (w/v) bovine serum albumin) which also contained the TR-FRET detection reagents (0.2 μM streptavidin-XL665 [Cisbio Bioassays, Codolet, France] and 1 nM anti-phosho-Serine antibody [Merck Millipore, cat. #35-001] and 0.4 nM LANCE EU-W1024 labeled anti-mouse IgG antibody [Perkin-Elmer, product no. AD0077, alternatively a Terbium-cryptate-labeled anti-mouse IgG antibody from Cisbio Bioassays can be used]). The stopped reaction mixture was further incubated 1 h at 22° C. in order to allow the formation of complexes between peptides and detection reagents. Subsequently, the amount of product was evaluated by measurement of the resonance energy transfer from the Eu-chelate-antlbody complex recognizing the Phosphoserlne residue to the streptavidin-XL665 bound to the biotin moiety of the peptide. […] IC50 values were calculated by fitting the normalized inhibition data to a 4-parameter logistic equation (Minimum, Maximum, IC50, Hill; Y=Max+(Min−Max)/(1+(X/IC50)Hill)) using a Bayer-proprietary analysis software.

| pIC50 ([1]; 4 days, crystal violet) | pIC50 [2] | Compound | pIC50 [1] |
| --- | --- | --- | --- |
| ≤ 5.00 | 8.17 | COc1cnc(-c2nn(Cc3ccc(C)c(F)c3F)c3ccccc23)nc1Nc1ccncc1 [Example 2-8-1, 2-[1-(2,3-difluoro-4-methylbenzyl)-1H-indazol-3-yl]-5-methoxy-N-(pyridin-4-yl)pyrimidin-4-amine] |  |
| 5.00 | 7.24 | COc1cnc(-c2nn(Cc3ccc(-n4cccn4)cc3)c3ccccc23)nc1Nc1ccncc1 [Example 2-8-3, 5-methoxy-2-{1-[4-(1H-pyrazol-1-yl)benzyl]-1H-indazol-3-yl}-N-(pyridin-4-yl)pyrimidin-4-amine] |  |
| 5.42 | 8.10 | COc1cnc(-c2nn(Cc3ccc(F)c(OC)c3Cl)c3ccccc23)nc1Nc1ccncc1 [Example 2-13-1, 2-[1-(2-chloro-4-fluoro-3-methoxybenzyl)-1H-indazol-3-yl]-5-methoxy-N-(pyridin-4-yl)pyrimidin-4-amine] |  |
| 5.33 | 7.42 | COc1cnc(-c2nn(Cc3c(F)c(F)c(OCC(F)(F)F)c(F)c3F)c3ccccc23)nc1Nc1ccncc1 [Example 2-15-1, 5-methoxy-N-(pyridin-4-yl)-2-{1-[2,3,5,6-tetrafluoro-4-(2,2,2-trifluoroethoxy)benzyl]-1H-indazol-3-yl}pyrimidin-4-amine] |  |
| 5.47 | 8.00 | COc1cnc(-c2nn(Cc3ccc(Cl)cc3Cl)c3ccccc23)nc1Nc1ccncc1 [Example 2-19-1, 2-[1-(2,4-dichlorobenzyl)-1H-indazol-3-yl]-5-methoxy-N-(pyridin-4-yl)pyrimidin-4-amine] |  |
| 5.54 | 6.08 | COc1cnc(-c2nn(Cc3c(Cl)cc(OC(F)(F)F)cc3Cl)c3ccccc23)nc1N(Cc1c(Cl)cc(OC(F)(F)F)cc1Cl)c1ccncc1 [Example 2-26-2, N-[2,6-dichloro-4-(trifluoromethoxy)benzyl]-2-{1-[2,6-dichloro-4-(trifluoromethoxy)benzyl]-1H-indazol-3-yl}-5-methoxy-N-(pyridin-4-yl)pyrimidin-4-amine] |  |
| ≤ 5.00 | 7.70 | COc1cnc(-c2nn(Cc3ccc4c(c3)NC(=O)CC4)c3ccccc23)nc1Nc1ccncc1 [Example 2-27-1, 7-({3-[5-methoxy-4-(pyridin-4-ylamino)pyrimidin-2-yl]-1H-indazol-1-yl}methyl)-3,4-dihydroquinolin-2(1H)-one] |  |
| 5.05 | 7.64 | COc1cc(Cn2nc(-c3ncc(OC)c(Nc4ccncc4)n3)c3ccccc32)cc(OC)c1 [Example 2-29-1, 2-[1-(3,5-dimethoxybenzyl)-1H-indazol-3-yl]-5-methoxy-N-(pyridin-4-yl)pyrimidin-4-amine] |  |
| 5.66 | 7.64 | COc1cnc(-c2nn(Cc3c(Cl)cccc3C(F)(F)F)c3ccccc23)nc1Nc1ccncc1 [Example 2-30-1, 2-{1-[2-chloro-6-(trifluoromethyl)benzyl]-1H-indazol-3-yl}-5-methoxy-N-(pyridin-4-yl)pyrimidin-4-amine] |  |
| ≤ 5.00 | 7.55 | COc1cnc(-c2nn(Cc3cc(F)ccc3Cl)c3ccccc23)nc1Nc1ccncc1 [Example 2-31-1, 2-[1-(2-chloro-5-fluorobenzyl)-1H-indazol-3-yl]-5-methoxy-N-(pyridin-4-yl)pyrimidin-4-amine] |  |
| ≤ 5.00 | 7.42 | COc1cnc(-c2nn(Cc3ccc(C#N)cc3F)c3ccccc23)nc1Nc1ccncc1 [Example 2-33-1, 3-fluoro-4-({3-[5-methoxy-4-(pyridin-4-ylamino)pyrimidin-2-yl]-1H-indazol-1-yl}methyl)benzonitrile] |  |
| ≤ 5.00 | 7.28 | CCOC(=O)Cc1cccc(Cn2nc(-c3ncc(OC)c(Nc4ccncc4)n3)c3ccccc32)c1 [Example 2-35-1, ethyl [3-({3-[5-methoxy-4-(pyridin-4-ylamino)pyrimidin-2-yl]-1H-indazol-1-yl}methyl)phenyl]acetate] |  |
| ≤ 5.00 | 7.24 | COc1cnc(-c2nn(Cc3ccc(F)cc3)c3ccccc23)nc1Nc1ccncc1 [Example 2-36-1, 2-[1-(4-fluorobenzyl)-1H-indazol-3-yl]-5-methoxy-N-(pyridin-4-yl)pyrimidin-4-amine] |  |
| ≤ 5.00 | 7.15 | COc1cnc(-c2nn(Cc3ccc(S(=O)(=O)NC4CC4)cc3)c3ccccc23)nc1Nc1ccncc1 [Example 2-37-1, N-cyclopropyl-4-({3-[5-methoxy-4-(pyridin-4-ylamino)pyrimidin-2-yl]-1H-indazol-1-yl}methyl)benzenesulfonamide] |  |
| ≤ 5.00 | 7.12 | COc1cnc(-c2nn(Cc3ccc4c(c3)OC(=O)C4)c3ccccc23)nc1Nc1ccncc1 [Example 2-38-1, 6-({3-[5-methoxy-4-(pyridin-4-ylamino)pyrimidin-2-yl]-1H-indazol-1-yl}methyl)-1-benzofuran-2(3H)-one] |  |
| 5.25 | 6.92 | COc1cnc(-c2nn(Cc3ccc(C(=O)OC(C)(C)C)cc3Cl)c3ccccc23)nc1Nc1ccncc1 [Example 2-40-1, tert-butyl 3-chloro-4-({3-[5-methoxy-4-(pyridin-4-ylamino)pyrimidin-2-yl]-1H-indazol-1-yl}methyl)benzoate] |  |

| Compound | pIC50 ([1]; 4 days, crystal violet) | pIC50 [2] | pIC50 [1] |
| --- | --- | --- | --- |
| COc1cnc(-c2nn(Cc3ccccc3Cl)c3ccccc23)nc1Nc1ccncc1 [Example 2-10-1, 2-[1-(2-chlorobenzyl)-1H-indazol-3-yl]-5-methoxy-N-(pyridin-4-yl)pyrimidin-4-amine] |  | 8.17 | ≤ 5.00 |
| CCOc1ccc(Cn2nc(-c3ncc(OC)c(Nc4ccncc4)n3)c3ccccc32)c(F)c1F [Example 2-14-1, 2-[1-(4-ethoxy-2,3-difluorobenzyl)-1H-indazol-3-yl]-5-methoxy-N-(pyridin-4-yl)pyrimidin-4-amine] |  | 8.08 | 5.33 |
| COc1cnc(-c2nn(Cc3c(F)cc(F)cc3F)c3ccccc23)nc1Nc1ccncc1 [Example 2-17-1, 5-methoxy-N-(pyridin-4-yl)-2-[1-(2,4,6-trifluorobenzyl)-1H-indazol-3-yl]pyrimidin-4-amine] |  | 8.06 | ≤ 5.00 |
| COc1cnc(-c2nn(Cc3ccc(I)cc3F)c3ccccc23)nc1Nc1ccncc1 [Example 2-20-1, 2-[1-(2-fluoro-4-iodobenzyl)-1H-indazol-3-yl]-5-methoxy-N-(pyridin-4-yl)pyrimidin-4-amine] |  | 7.96 | 5.14 |
| COc1cnc(-c2nn(Cc3ccccc3Br)c3ccccc23)nc1Nc1ccncc1 [Example 2-21-1, 2-[1-(2-bromobenzyl)-1H-indazol-3-yl]-5-methoxy-N-(pyridin-4-yl)pyrimidin-4-amine] |  | 7.92 | ≤ 5.00 |
| COc1ccc(Cn2nc(-c3ncc(OC)c(Nc4ccncc4)n3)c3ccccc32)cc1 [Example 2-23-1, 5-methoxy-2-[1-(4-methoxybenzyl)-1H-indazol-3-yl]-N-(pyridin-4-yl)pyrimidin-4-amine] |  | 7.89 | 5.03 |
| COc1cnc(-c2nn(Cc3ccc(I)cc3Cl)c3ccccc23)nc1Nc1ccncc1 [Example 2-28-1, 2-[1-(2-chloro-4-iodobenzyl)-1H-indazol-3-yl]-5-methoxy-N-(pyridin-4-yl)pyrimidin-4-amine] |  | 7.66 | 5.09 |
| COc1cnc(-c2nn(Cc3c(F)cc(OC(F)F)cc3F)c3ccccc23)nc1Nc1ccncc1 [Example 2-39-1, 2-{1-[4-(difluoromethoxy)-2,6-difluorobenzyl]-1H-indazol-3-yl}-5-methoxy-N-(pyridin-4-yl)pyrimidin-4-amine] |  | 8.25 | 5.44 |
| CCOC(=O)C(C)(C)c1cccc(Cn2nc(-c3ncc(OC)c(Nc4ccncc4)n3)c3ccccc32)c1 [Example 2-41-1, ethyl 2-[3-({3-[5-methoxy-4-(pyridin-4-ylamino)pyrimidin-2-yl]-1H-indazol-1-yl}methyl)phenyl]-2-methylpropanoate] |  | 6.82 | 5.10 |
